# Molecular target: PIK3CA (human) (UniProt P42336)
# Assay: Assessment of PIK3CA Kinase Activity
# Chain of PIK3CA (human) (P42336 whole entry, looked up): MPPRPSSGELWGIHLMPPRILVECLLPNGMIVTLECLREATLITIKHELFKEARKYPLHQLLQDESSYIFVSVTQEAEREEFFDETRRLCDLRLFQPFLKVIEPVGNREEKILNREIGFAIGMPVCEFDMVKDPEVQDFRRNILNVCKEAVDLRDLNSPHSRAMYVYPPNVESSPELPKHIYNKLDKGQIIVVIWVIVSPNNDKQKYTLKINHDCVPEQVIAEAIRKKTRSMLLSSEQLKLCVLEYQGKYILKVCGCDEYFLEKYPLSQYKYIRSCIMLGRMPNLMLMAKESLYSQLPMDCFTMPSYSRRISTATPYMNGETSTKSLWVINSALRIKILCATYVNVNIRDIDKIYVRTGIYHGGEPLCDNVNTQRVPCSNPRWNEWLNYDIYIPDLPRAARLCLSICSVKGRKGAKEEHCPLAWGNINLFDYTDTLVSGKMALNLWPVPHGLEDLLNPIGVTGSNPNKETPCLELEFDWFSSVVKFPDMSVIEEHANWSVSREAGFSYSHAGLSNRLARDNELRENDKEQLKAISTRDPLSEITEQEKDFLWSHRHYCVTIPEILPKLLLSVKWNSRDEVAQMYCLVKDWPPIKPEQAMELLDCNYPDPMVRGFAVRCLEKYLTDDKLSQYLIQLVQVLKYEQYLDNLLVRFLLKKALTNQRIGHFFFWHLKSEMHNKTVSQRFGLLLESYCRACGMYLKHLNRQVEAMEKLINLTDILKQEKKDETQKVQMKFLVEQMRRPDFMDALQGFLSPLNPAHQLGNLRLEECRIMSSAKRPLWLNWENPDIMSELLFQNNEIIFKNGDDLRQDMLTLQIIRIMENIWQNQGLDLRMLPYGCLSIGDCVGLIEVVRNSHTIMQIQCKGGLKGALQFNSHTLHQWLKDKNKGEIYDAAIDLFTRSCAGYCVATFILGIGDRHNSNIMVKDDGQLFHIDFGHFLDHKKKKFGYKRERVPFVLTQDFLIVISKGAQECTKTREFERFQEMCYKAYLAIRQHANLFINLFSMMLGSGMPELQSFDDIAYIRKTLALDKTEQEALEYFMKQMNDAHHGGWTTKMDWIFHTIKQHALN
row,SMILES,IC50 [nM]
1,CC(C)n1ncnc1-c1cn2c(n1)-c1ccc(-c3cnc(N)nc3)cc1OCC2,< 1000
2,Cc1nc(-c2cn3c(n2)-c2ccc(-c4cnn(CC(C)C(=O)O)c4)cc2OCC3)n(C(C)C)n1 (stereo not given),< 1000
3,CC(C)n1ncnc1-c1cn2c(n1)-c1ccc(-c3cn(CCO)cn3)cc1OCC2,< 1000
4,CC(C)n1ncnc1-c1cn2c(n1)-c1ccc(C3CCN(CC(F)(F)F)CC3)cc1OCC2,< 1000
5,CC(C)n1ncnc1-c1cn2c(n1)-c1ccc(O[C@@H](C)C(=O)O)cc1OCC2,< 1000
6,Cc1nc(-c2cn3c(n2)-c2ccc(OCC(F)(F)F)cc2OCC3)n(C(C)C)n1,< 1000
7,CC(C)n1ncnc1-c1cn2c(n1)-c1ccc(O)cc1OCC2,< 1000
8,CC(C)n1ncnc1-c1cn2c(n1)-c1ccc(OC3COC3)cc1OCC2,< 1000
9,O=C(c1ccc2c(c1)-c1nc(-c3ncnn3-c3ccc(F)cc3F)cn1CCO2)N1CCN(CCO)CC1,< 1000
10,CC(C)n1ncnc1-c1cn2c(n1)-c1ccc([C@@H](C)C(N)=O)cc1OCC2,< 1000
11,CC(C)n1nc(N)nc1-c1cn2c(n1)-c1cc(F)c(F)cc1OCC2,< 1000
12,Cc1nc(-c2cn3c(n2)-c2ccc(C4CC4)cc2OCC3)n(C(C)CO)n1 (stereo not given),< 1000
13,CC(C)n1ncnc1-c1cn2c(n1)-c1ccc(C3=NC(C)(C)CO3)cc1OCC2,< 1000
14,NC(=O)[C@@H]1CCCN1c1cc2c(cn1)-c1nc(-c3ncnn3-c3ccccc3Cl)cn1CCO2,< 1000
15,CC(C)n1nccc1-c1cn2c(n1)CCOc1cc(C(N)=O)cnc1-2,< 1000
16,Cc1nc(-c2cn3c(n2)-c2ccc(OC4CC4)cc2OCC3)n(C(C)C)n1,< 1000
17,CN(C)c1cc2c(cn1)-c1nc(-c3nc(CO)nn3CC(F)(F)F)cn1CCO2,< 1000
18,C[C@H](Oc1ccc2c(c1)OCCn1cc(-c3ncnn3C3CC3)nc1-2)C(N)=O,< 1000
19,CC(C)n1ncnc1-c1cn2c(n1)-c1ccc(-c3ccc(N)nc3)cc1OCC2,< 1000
20,C[C@H](Oc1ccc2c(c1)OCCn1cc(-c3ncnn3CC(F)(F)F)nc1-2)C(N)=O,< 1000

row,SMILES,IC50 [nM]
1,O=C(c1ccc2c(c1)-c1nc(-c3ncnn3CC(F)(F)F)cn1CCO2)N1CCN(CCO)CC1,< 1000
2,CC(C)n1ncnc1-c1cn2c(n1)-c1cnc(N3CCC(CO)CC3)cc1OCC2,< 1000
3,CC(C)n1nccc1-c1cn2c(n1)-c1cnc(Cl)cc1OCC2,< 1000
4,CC(C)n1ncnc1-c1cn2c(n1)-c1cnc(N[C@@H](C)C(N)=O)cc1OCC2,< 1000
5,Cc1nc(-c2cn3c(n2)-c2cc(-c4ccc(=O)[nH]c4)ccc2OCC3)n(C(C)C)n1,< 1000
6,CC(C)(Oc1ccc2c(c1)OCCn1cc(-c3ncnn3CC(F)(F)F)nc1-2)C(N)=O,< 1000
7,CC(C)n1ncnc1-c1cc2n(n1)-c1cc(C(=O)N3CCN(CC(F)(F)F)CC3)ccc1OCC2,< 1000
8,OCCN1CCC(c2ccc3c(c2)-n2nc(-c4ncnn4CC(F)(F)F)cc2CCO3)CC1,< 1000
9,CC(C)n1ncnc1-c1cn2c(n1)-c1ccc(N3CCNC(=O)C3)nc1OCC2,< 1000
10,CC(C)n1ncnc1-c1cn2c(n1)-c1cnc(N3CC(O)C3)cc1OCC2,< 1000
11,Nc1nc(-c2cn3c(n2)-c2cc(F)ccc2OCC3)n(CC(F)(F)F)n1,< 1000
12,CC(C)n1ncnc1-c1cn2c(n1)-c1ccc(C3CCN(CCO)CC3)cc1OCC2,< 1000
13,CC(C)n1ncnc1-c1cn2c(n1)-c1cc(N3CCNC(=O)C3)ncc1OCC2,< 1000
14,Nc1ccc2c(c1)OCCn1cc(-c3ncnn3CC(F)(F)F)nc1-2,< 1000
15,Cc1nc(-c2cn3c(n2)-c2ccc(C4CCN(CC(N)=O)CC4)cc2OCC3)n(C(C)C)n1,< 1000
16,CC(C)n1nc(CO)nc1-c1cn2c(n1)-c1ccccc1OCC2,< 1000
17,Cc1nc(-c2ccc3c(c2)OCCn2cc(-c4ncnn4C(C)C)nc2-3)cn1CCOC1CCCCO1 (stereo not given),< 1000
18,CNc1nc(-c2cn3c(n2)-c2ccccc2OCC3)n(C(C)C)n1,< 1000
19,CC(C)n1ncnc1-c1cn2c(n1)-c1cnc(N3CCC[C@H]3C(N)=O)cc1OCC2,< 1000
20,Nc1nc(-c2cn3c(n2)-c2cc(C(F)(F)F)ccc2OCC3)n(CC(F)(F)F)n1,< 1000

# — the Kinase Knowledgebase extract (Sharma et al. 2016)
